From PubChem BioAssay AID2060905 (Molecular Pharmacology Branch, DTP, NCI, 2025)
pIC50: −log10 of the molar value. Several values for one entry are separate records, joined by “and”; a condition that tells them apart may be missing. Equal entries are not always repeated.

Tested on: 282377-053-R-J1-PDC complex spheroid viability
Test: Anticancer human tumor 282377-053-R-J1-PDC patient-derived colon adenocarcinoma cell line growth inhibition [RAS]
Conditions: for viability, T/C: stronger effect = lower value
Outline: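 Agents were tested in combination matrices in half-log decrements from a top concentration at or near clinical Cmax (10 microM if undetermined). Targets were multi-cell spheroids of tumour lines plus HUVEC and MSC stromal cells.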
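Note: spheroids exposed to agents for seven days before readout.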
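Throughout, for viability, T/C: luminescence viability as percent of DMSO vehicle control wells.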

Question: What does the source list for `C[C@@H](NC(=O)c1ncnc(N)c1Cl)c1ncc(C(=O)Nc2cc(C(F)(F)F)c(Cl)cn2)s1` + C=CC(=O)N1CCN(c2nc(OCC3CCCN3C)nc3c(F)c(-c4nc(N)cc(C)c4C(F)(F)F)c(Cl)cc23)C(C)C1?
Answer: pIC50 (curve of first compound, second compound 0.00316 µM): < 5.00; pIC50 (curve of first compound, second compound 0.01 µM): < 5.00; pIC50 (curve of first compound, second compound 0.0316 µM): < 5.00; pIC50 (curve of first compound, second compound 0.1 µM): < 5.00; pIC50 (curve of first compound, second compound 0.316 µM): < 5.00; pIC50 (curve of first compound, second compound 1 µM): < 5.00; viability, T/C (second compound 0.00316 µM, first compound 0.0316 µM): 99%; viability, T/C (second compound 0.00316 µM, first compound 0.1 µM): 101%; viability, T/C (second compound 0.00316 µM, first compound 0.316 µM): 95.4%; viability, T/C (second compound 0.00316 µM, first compound 1 µM): 88.4%; viability, T/C (second compound 0.00316 µM, first compound 3.16 µM): 69.5%; viability, T/C (second compound 0.00316 µM, first compound 10 µM): 66.1%; viability, T/C (second compound 0.01 µM, first compound 0.0316 µM): 84.1%; viability, T/C (second compound 0.01 µM, first compound 0.1 µM): 105%; viability, T/C (second compound 0.01 µM, first compound 0.316 µM): 98%; viability, T/C (second compound 0.01 µM, first compound 1 µM): 80.7%; viability, T/C (second compound 0.01 µM, first compound 3.16 µM): 82.2%; viability, T/C (second compound 0.01 µM, first compound 10 µM): 76.4%; viability, T/C (second compound 0.0316 µM, first compound 0.0316 µM): 84.9%; viability, T/C (second compound 0.0316 µM, first compound 0.1 µM): 78.4%; viability, T/C (second compound 0.0316 µM, first compound 0.316 µM): 89.4%; viability, T/C (second compound 0.0316 µM, first compound 1 µM): 84.7%; viability, T/C (second compound 0.0316 µM, first compound 3.16 µM): 80.9%; viability, T/C (second compound 0.0316 µM, first compound 10 µM): 57.6%; viability, T/C (second compound 0.1 µM, first compound 0.0316 µM): 106%; viability, T/C (second compound 0.1 µM, first compound 0.1 µM): 98.7%; viability, T/C (second compound 0.1 µM, first compound 0.316 µM): 99.9%; viability, T/C (second compound 0.1 µM, first compound 1 µM): 92.3%; viability, T/C (second compound 0.1 µM, first compound 3.16 µM): 66%; viability, T/C (second compound 0.1 µM, first compound 10 µM): 66.1%; viability, T/C (second compound 0.316 µM, first compound 0.0316 µM): 92.5%; viability, T/C (second compound 0.316 µM, first compound 0.1 µM): 118%; viability, T/C (second compound 0.316 µM, first compound 0.316 µM): 98.1%; viability, T/C (second compound 0.316 µM, first compound 1 µM): 81.6%; viability, T/C (second compound 0.316 µM, first compound 3.16 µM): 78.2%; viability, T/C (second compound 0.316 µM, first compound 10 µM): 92.3%; viability, T/C (second compound 1 µM, first compound 0.0316 µM): 104%; viability, T/C (second compound 1 µM, first compound 0.1 µM): 90.3%; viability, T/C (second compound 1 µM, first compound 0.316 µM): 122%; viability, T/C (second compound 1 µM, first compound 1 µM): 76.5%; viability, T/C (second compound 1 µM, first compound 3.16 µM): 85%; viability, T/C (second compound 1 µM, first compound 10 µM): 82.5%

Question: Which results are given for `CC(C)n1nc(-c2ccc3oc(N)nc3c2)c2c(N)ncnc21`?
Answer: viability, T/C (compound 0.000316 µM): 91.6% [middle of 4 runs]; viability, T/C (compound 0.001 µM): 112% and 102% (2×) and 89.9%; viability, T/C (compound 0.00316 µM): 90.7% [middle of 4 runs]; viability, T/C (compound 0.01 µM): 87.2% [middle of 4 runs]; viability, T/C (compound 0.0316 µM): 74.9% [middle of 4 runs]; viability, T/C (compound 0.1 µM): 51.8% [middle of 4 runs]; pIC50 (curve of compound): < 7.00

Question: `CC1(O)CCCC1n1c(=O)c(C(F)F)cc2cnc(NC3CCN(S(C)(=O)=O)CC3)nc21` (stereo unspecified) + CCn1c(-c2cccnc2C(C)OC)c2c3cc(ccc31)N1CCOC(CC(NC(=O)C(C(C)C)N(C)C(=O)C3(F)CCN(C(=O)C#CC(C)(C)N(C)C)CC3)C(=O)N3CCCC(N3)C(=O)OCC(C)(C)C2)C1 was tested. Which pIC50 (curve of first compound, second compound 0.000949 µM) did it give?
Answer: The pIC50 was 5.16.

Question: What about the pIC50 (curve of first compound, second compound 0.003 µM) of the same compound?
Answer: The pIC50 was 5.15.

Question: What about the pIC50 (curve of first compound, second compound 0.00949 µM) of the same compound?
Answer: Its pIC50 is 5.15.

Question: What about the pIC50 (curve of first compound, second compound 0.03 µM) of the same compound?
Answer: Its pIC50 is 5.16.

Question: And the pIC50 (curve of first compound, second compound 0.0949 µM)?
Answer: The pIC50 was 5.14.

Question: And the pIC50 (curve of first compound, second compound 0.3 µM)?
Answer: The pIC50 was 5.16.

Question: And the viability, T/C (second compound 0.000949 µM, first compound 0.0316 µM)?
Answer: The viability, T/C was 118%.

Question: What about the viability, T/C (second compound 0.000949 µM, first compound 0.1 µM) of the same compound?
Answer: The viability, T/C was 112%.

Question: And the viability, T/C (second compound 0.000949 µM, first compound 0.316 µM)?
Answer: The viability, T/C was 171%.

Question: And the viability, T/C (second compound 0.000949 µM, first compound 1 µM)?
Answer: Its viability, T/C is 144%.

Question: What about the viability, T/C (second compound 0.000949 µM, first compound 3.16 µM) of the same compound?
Answer: The viability, T/C was 159%.

Question: What about the viability, T/C (second compound 0.000949 µM, first compound 10 µM) of the same compound?
Answer: Its viability, T/C is 6.67%.

Question: And the viability, T/C (second compound 0.003 µM, first compound 0.0316 µM)?
Answer: The viability, T/C was 129%.

Question: What about the viability, T/C (second compound 0.003 µM, first compound 0.1 µM) of the same compound?
Answer: The viability, T/C was 128%.

Question: And the viability, T/C (second compound 0.003 µM, first compound 0.316 µM)?
Answer: The viability, T/C was 140%.

Question: And the viability, T/C (second compound 0.003 µM, first compound 1 µM)?
Answer: The viability, T/C was 131%.

Question: What about the viability, T/C (second compound 0.003 µM, first compound 3.16 µM) of the same compound?
Answer: The viability, T/C was 218%.

Question: What about the viability, T/C (second compound 0.003 µM, first compound 10 µM) of the same compound?
Answer: Its viability, T/C is 8.84%.

Question: And the viability, T/C (second compound 0.00949 µM, first compound 0.0316 µM)?
Answer: The viability, T/C was 122%.

Question: And the viability, T/C (second compound 0.00949 µM, first compound 0.1 µM)?
Answer: Its viability, T/C is 97%.

Question: And the viability, T/C (second compound 0.00949 µM, first compound 0.316 µM)?
Answer: The viability, T/C was 153%.

Question: And the viability, T/C (second compound 0.00949 µM, first compound 1 µM)?
Answer: Its viability, T/C is 156%.

Question: What about the viability, T/C (second compound 0.00949 µM, first compound 3.16 µM) of the same compound?
Answer: The viability, T/C was 199%.

Question: What about the viability, T/C (second compound 0.00949 µM, first compound 10 µM) of the same compound?
Answer: Its viability, T/C is 8.76%.

Question: What about the viability, T/C (second compound 0.03 µM, first compound 0.0316 µM) of the same compound?
Answer: The viability, T/C was 105%.

Question: And the viability, T/C (second compound 0.03 µM, first compound 0.1 µM)?
Answer: The viability, T/C was 111%.

Question: What about the viability, T/C (second compound 0.03 µM, first compound 0.316 µM) of the same compound?
Answer: The viability, T/C was 153%.

Question: What about the viability, T/C (second compound 0.03 µM, first compound 1 µM) of the same compound?
Answer: The viability, T/C was 159%.

Question: And the viability, T/C (second compound 0.03 µM, first compound 3.16 µM)?
Answer: Its viability, T/C is 165%.

Question: And the viability, T/C (second compound 0.03 µM, first compound 10 µM)?
Answer: Its viability, T/C is 7.79%.

Question: What about the viability, T/C (second compound 0.0949 µM, first compound 0.0316 µM) of the same compound?
Answer: The viability, T/C was 121%.

Question: What about the viability, T/C (second compound 0.0949 µM, first compound 0.1 µM) of the same compound?
Answer: The viability, T/C was 120%.

Question: What about the viability, T/C (second compound 0.0949 µM, first compound 0.316 µM) of the same compound?
Answer: Its viability, T/C is 201%.

Question: What about the viability, T/C (second compound 0.0949 µM, first compound 1 µM) of the same compound?
Answer: Its viability, T/C is 181%.

Question: What about the viability, T/C (second compound 0.0949 µM, first compound 3.16 µM) of the same compound?
Answer: Its viability, T/C is 214%.

Question: What about the viability, T/C (second compound 0.0949 µM, first compound 10 µM) of the same compound?
Answer: The viability, T/C was 5.91%.

Question: And the viability, T/C (second compound 0.3 µM, first compound 0.0316 µM)?
Answer: The viability, T/C was 111%.

Question: What about the viability, T/C (second compound 0.3 µM, first compound 0.1 µM) of the same compound?
Answer: Its viability, T/C is 129%.

Question: What about the viability, T/C (second compound 0.3 µM, first compound 0.316 µM) of the same compound?
Answer: Its viability, T/C is 146%.

Question: What about the viability, T/C (second compound 0.3 µM, first compound 1 µM) of the same compound?
Answer: The viability, T/C was 155%.

Question: What about the viability, T/C (second compound 0.3 µM, first compound 3.16 µM) of the same compound?
Answer: Its viability, T/C is 158%.

Question: And the viability, T/C (second compound 0.3 µM, first compound 10 µM)?
Answer: The viability, T/C was 6.46%.
